Here are results for 53 molecules from PubChem BioAssay AID1261 (University of Pittsburgh Molecular Library Screening Center, 2008).

Records with an inconclusive call do not appear. Activity calls are given as the source filed them. How the calls were made is not given here.

The first assay concerns the target Tyrosine-protein phosphatase YopH [Yersinia enterocolitica]. The assay can be described thus: potency against Yersinia YopH phosphatase – biochemical, 10-point dose range, dose response (AID 1261). As to conditions: YopH phosphatase enzymatic assay, IC50, 3 runs.
As a reminder, the IC50 is the concentration that inhibits the measured activity by half. On to `CCN(CC)c1ccc(/C=N/Nc2ccc(C)cc2)c(O)c1`, for which the IC50 was > 50 µM (inactive).

Take `CC1=C(C)C(=O)C(CCCCC#CCCCC#CCO)=C(C)C1=O`: the IC50 is > 50 µM (inactive).

The assay is the same for the next values; noted with them: YopH phosphatase enzymatic assay, IC50, 3 runs; inhibition; at 50 µM; stronger effect = higher value.
The term inhibition denotes the change of the read-out against control, counted positive when it falls. As to `COC(=O)N(NC(=O)C(O)(CCC(C)C)CCC(C)C)c1ccccc1`, the inhibition was found to be 4.94%.

In the case of `COc1cc(NCCCCCCCN)c2ncccc2c1`, the inhibition worked out at 56.5%.

For the molecule `Cc1ccc(NC(=O)c2ccnc(C(C)(C)C)c2)cc1`, the inhibition was -1.22%.

Take `COCCCNC(=O)CC(NS(=O)(=O)c1ccc(F)cc1)c1ccc(OC)cc1` (stereo not given): the inhibition is -10.7%.

As to `CC1=CC(=C(C#N)c2nc3ccccc3s2)C=C(C)N1c1ccc(F)cc1`, the inhibition came out at 8.34%.

Consider `CCN(CC)c1ccc(NC(=O)c2cccc(OC)c2)c(C)c1`, for which the inhibition was -4.28%.

As for `O=[N+]([O-])c1ccc(-c2csc3[n+]2CCS3)cc1`, the inhibition worked out at 20.8%.

For `Cc1ccc(C(C[N+](=O)[O-])c2c(C)[nH]n(-c3ccccc3)c2=O)cc1` (stereo not given), the inhibition was -20.8%.

`CC(C)(C)c1cc(OC(=O)c2ccncc2)ccc1O`: the inhibition was 30.2%.

`CCN(CC)c1ccc(/C=N/Nc2ccc(C)cc2)c(O)c1`: the inhibition worked out at 9.55%.

Turning to `COc1ccc2cc(-c3cc(C(=O)OCC(=O)NC4CCS(=O)(=O)C4)c4ccccc4n3)ccc2c1` (stereo not given), the inhibition worked out at 3.98%.

Consider `O=C(O)c1ccc(NC2=C(N3CCOCC3)C(=O)c3ccccc3C2=O)cc1`, for which the inhibition was -0.899%.

Turning to `COc1cccc(-c2nc(CS(=O)(=O)CC(=O)N3CCc4ccccc4C3)c(C)o2)c1`, the inhibition is -0.295%.

`O=C(O)c1ccccc1SCC(=O)N1c2ccccc2Sc2ccccc21`: the inhibition is -57.4%.

Take `COC(=O)Cc1cnc(NC(=O)C2C3CCC(C3)C2C(=O)O)s1` (stereo not given): the inhibition was -18.2%.

For `O=C1C(Nc2ccccc2)=C(N2CCCCC2)C(=O)c2ccccc21`, the inhibition is 41.9%.

Turning to `CCOC(=O)c1nc(C)n(-c2ccc(Cl)cc2)n1`, the inhibition was -5.92%.

`O=C(OCC1O[C@@H](OC(=O)c2cc(O)c(O)c(O)c2)[C@@H](OC(=O)c2cc(O)c(O)c(O)c2)[C@@H](OC(=O)c2cc(O)c(O)c(O)c2)[C@@H]1OC(=O)c1cc(O)c(O)c(O)c1)c1cc(O)c(O)c(O)c1` (stereo not given in full): the inhibition turned out to be 72.5%.

On to `O=C(CSc1ncn[nH]1)c1ccc2c(c1)OCO2`, for which the inhibition is -17.6%.

`O=C(CSc1nnc(-c2ccccc2)o1)n1c2c(c3ccccc31)CCCC2`: the inhibition is -10.9%.

In the case of `CC1=CC(=C(C#N)c2nc3ccccc3s2)C=C(C)N1c1ccc(F)cc1F`, the inhibition amounted to 1.55%.

On to `CCOC(=O)COc1cc(=O)n(CC)c2ccccc12`, for which the inhibition is -3.72%.

Turning to `Cn1c(COc2ccccc2)nnc1SCc1nc2ccccc2[nH]1`, the inhibition is -3.78%.

On to `S=c1[nH]nc(-c2ccccc2)n1/N=C/C=C/c1ccco1`, for which the inhibition was determined as 3.47%.

Turning to `CN1C(=O)C(Cc2cccc3ccccc23)C(=O)N(C)C1=O`, the inhibition came to 20.5%.

`CCCCCCCC1=CC2=CC(=O)C(C)(OC(C)=O)C(=O)C2=CN1CCc1ccccc1` (stereo not given): the inhibition was -7.04%.

On to `Cc1nc2ccccc2c(=O)n1NC(=O)c1c(O)c2c(n(CC(C)C)c1=O)CCCC2`, for which the inhibition was -4.05%.

As to `O=C(NC(C(=O)O)c1ccccc1)c1ccc(S(=O)(=O)N2CCOCC2)cc1` (stereo not given), the inhibition was -10.8%.

In the case of `CCCCn1c(N)c(NCCC(C)C)c(=O)[nH]c1=O`, the inhibition is 33%.

Take `CC(=O)NC1=C(N(C)C2CCS(=O)(=O)C2)C(=O)c2ccccc2C1=O` (stereo not given): the inhibition is 9.79%.

Take `Cc1ccccc1/[N+]([O-])=C/c1ccncc1`: the inhibition is 15.6%.

Turning to `CCC(=O)Nc1nonc1-c1nc2ccccc2n1CCC(C)C`, the inhibition was -8.12%.

Regarding `CC(=O)[C@H]1[C@@H]2C(=O)N(c3cccc(Cl)c3)C(=O)[C@@H]2[C@H]2c3ccccc3C=CN21`, the inhibition came out at 5.01%.

As for `Nc1c(NCc2ccccc2F)c(=O)[nH]c(=O)n1Cc1ccccc1`, the inhibition was 33.1%.

With `COc1ccc(NC(=O)/C(=C/c2cccnc2)NC(=O)c2cccs2)cc1`, the inhibition is -16.6%.

As for `Cc1cc(C)nc(SCC(=O)Oc2ccc3oc(=O)cc(C)c3c2)n1`, the inhibition is -24.4%.

With `Cc1ccc(NC2=C(N3CCOCC3)C(=O)c3ccccc3C2=O)cc1`, the inhibition amounted to 18%.

For the molecule `COC(=O)C1C(C(C)C)N(c2ccccc2)OC1(C)O` (stereo not given), the inhibition was -0.943%.

For `O=C(NC(Cc1c[nH]c2ccccc12)c1nnc2n1CCCCC2)c1cccs1` (stereo not given), the inhibition was 0.82%.

Consider `Cc1[nH]n(-c2ccccc2)c(=O)c1C(C[N+](=O)[O-])c1ccc(Cl)cc1` (stereo not given), for which the inhibition was -6.86%.

In the case of `CCOc1ccc(C(=S)N2CCOCC2)cc1OC`, the inhibition is -1.37%.

With `Nc1cccc(C2=Nc3cccc4cccc(c34)N2)c1`, the inhibition was 75.9%.

Turning to `CC1=C(C)C(=O)C(CCCCC#CCCCC#CCO)=C(C)C1=O`, the inhibition was found to be 0.676%.

For `O=C(/C(=C(\[O-])c1ccccc1)[n+]1ccc2ccccc2c1)c1ccccc1`, the inhibition was -13.2%.

`COc1ccccc1NC(=O)N1CCC(C(=O)c2ccc(F)cc2)CC1`: the inhibition was -5.37%.

With `CCN(CC)c1ccc(C=Nc2ccccc2)c(O)c1`, the inhibition came to 17.6%.

As to `COc1ccccc1N1C(C)=CC(=C(C#N)c2nc3ccccc3s2)C=C1C`, the inhibition is -2.35%.

Take `CC(=O)c1ccc(NC2=C(N3CCOCC3)C(=O)c3ccccc3C2=O)cc1`: the inhibition was 30.4%.

Consider `COCCCNC(=O)C1CCCN(C(=O)Nc2ccc(OC)cc2)C1` (stereo not given), for which the inhibition is -19.6%.

Regarding `Cc1cccc(OCCCCc2c(C)n[nH]c2C)c1`, the inhibition was -10.5%.

On to `CC1(C)COC(/C=C/c2ccc([N+](=O)[O-])cc2)=N1`, for which the inhibition is -8.03%.

`COC(=O)c1ccc(Cl)c(NC(=O)CN2CCN(Cc3ccccc3)CC2)c1`: the inhibition was -9.15%.

Regarding `CC(C(=O)N1CCCc2c1c(=O)oc1ccc(O)cc21)N1CCc2ccccc2C1` (stereo not given), the inhibition amounted to 0.0785%.
